Data published in patent US20210138025A1, “CATIONIC PEPTIDES WITH IMMUNOMODULATORY AND/OR ANTI-BIOFILM ACTIVITIES” (priority 2018, published 2021).
Non-standard residues stand in square brackets, D forms with d. No end group written: not given here. hArg = N=C(N)NCCCC[C@H](N)C(=O)O; Agb = N=C(N)NCC[C@H](N)C(=O)O; Orn = NCCC[C@H](N)C(=O)O; Dab = NCC[C@H](N)C(=O)O

Test system: S. aureus (MRSA SAP0017)
Assay type: cell-based, Staphylococcus aureus
Settings: for % Biofilm Inhibition: SPOT synthesized control peptides, determined as in Table 5, Table 7; for % Residual MRSA biofilm growth compared to untreated control: SPOT synthesized peptide, ~12.5 μM, clinical MRSA strain, crystal violet assay
Description: Methods of assessment of anti-biofilm activity: MRSA S. aureus strain SAP0017 biofilm formation was initially analyzed using a static abiotic solid surface assay as described elsewhere (de la Fuente-Nunez et al., 2012) and shown graphically in FIG. 2. Dilutions (1/100) of overnight cultures were incubated in BM2 biofilm-adjusted medium [62 mM potassium phosphate buffer (pH 7), 7 mM (NH4)2SO4, 2 mM MgSO4, 10 μM FeSO4, 0.4% (wt/vol) glucose, 0.5% (wt/vol) Casamino Acids], or a nutrient rich medium such as Tryptic soy broth supplemented with 1% glucose, in polypropylene microtiter plates (Falcon, United States) in the absence (control) or presence of peptide. Peptide was added at time zero (prior to adding the diluted, overnight cultures) in varying concentrations, and the amount biofilm formation was recorded after 22-46 h incubation for most bacteria. To quantify biofilm growth, planktonic cells were removed and biofilm cells adhering to the side of the wells were stained with crystal violet, and absorbance at 595 nm was measured using a microtiter plate reader (Bio-Tek Instruments Inc., United States).

Row | Substance | % Biofilm Inhibition | % Residual MRSA biofilm growth compared to untreated control
1 | C108 (VRLI[Orn]AVRIWRR-NH2; N-terminus assumed; SMILES CC[C@H](C)[C@H](NC(=O)[C@H](CC(C)C)NC(=O)[C@H](CCCNC(=N)N)NC(=O)[C@@H](N)C(C)C)C(=O)N[C@@H](CCCN)C(=O)N[C@@H](C)C(=O)N[C@H](C(=O)N[C@@H](CCCNC(=N)N)C(=O)N[C@H](C(=O)N[C@@H](Cc1c[nH]c2ccccc12)C(=O)N[C@@H](CCCNC(=N)N)C(=O)N[C@@H](CCCNC(=N)N)C(N)=O)[C@@H](C)CC)C(C)C) [Peptide C108] | 104% | 
2 | C109 (VRLIVA[Orn]RIWRR-NH2; N-terminus assumed; SMILES CC[C@H](C)[C@H](NC(=O)[C@H](CCCNC(=N)N)NC(=O)[C@H](CCCN)NC(=O)[C@H](C)NC(=O)[C@@H](NC(=O)[C@@H](NC(=O)[C@H](CC(C)C)NC(=O)[C@H](CCCNC(=N)N)NC(=O)[C@@H](N)C(C)C)[C@@H](C)CC)C(C)C)C(=O)N[C@@H](Cc1c[nH]c2ccccc12)C(=O)N[C@@H](CCCNC(=N)N)C(=O)N[C@@H](CCCNC(=N)N)C(N)=O) [Peptide C109] | 104% | 
3 | C110 (VRLIVAVR[Orn]WRR-NH2; N-terminus assumed; SMILES CC[C@H](C)[C@H](NC(=O)[C@H](CC(C)C)NC(=O)[C@H](CCCNC(=N)N)NC(=O)[C@@H](N)C(C)C)C(=O)N[C@H](C(=O)N[C@@H](C)C(=O)N[C@H](C(=O)N[C@@H](CCCNC(=N)N)C(=O)N[C@@H](CCCN)C(=O)N[C@@H](Cc1c[nH]c2ccccc12)C(=O)N[C@@H](CCCNC(=N)N)C(=O)N[C@@H](CCCNC(=N)N)C(N)=O)C(C)C)C(C)C) [Peptide C110] | 100% | 
4 | C111 (VRLIVAVRI[Orn]RR) [Peptide C111] | 92% | 
5 | DabRLIVAVRIWRR ([Dab]RLIVAVRIWRR-NH2; N-terminus assumed; SMILES CC[C@H](C)[C@H](NC(=O)[C@H](CCCNC(=N)N)NC(=O)[C@@H](NC(=O)[C@H](C)NC(=O)[C@@H](NC(=O)[C@@H](NC(=O)[C@H](CC(C)C)NC(=O)[C@H](CCCNC(=N)N)NC(=O)[C@@H](N)CCN)[C@@H](C)CC)C(C)C)C(C)C)C(=O)N[C@@H](Cc1c[nH]c2ccccc12)C(=O)N[C@@H](CCCNC(=N)N)C(=O)N[C@@H](CCCNC(=N)N)C(N)=O) [Peptide 1018-k13] |  | 59%
6 | GbutRLIVAVRIWRR ([Agb]RLIVAVRIWRR-NH2; N-terminus assumed; SMILES CC[C@H](C)[C@H](NC(=O)[C@H](CCCNC(=N)N)NC(=O)[C@@H](NC(=O)[C@H](C)NC(=O)[C@@H](NC(=O)[C@@H](NC(=O)[C@H](CC(C)C)NC(=O)[C@H](CCCNC(=N)N)NC(=O)[C@@H](N)CCNC(=N)N)[C@@H](C)CC)C(C)C)C(C)C)C(=O)N[C@@H](Cc1c[nH]c2ccccc12)C(=O)N[C@@H](CCCNC(=N)N)C(=O)N[C@@H](CCCNC(=N)N)C(N)=O) [Peptide 1018-r13] |  | 47%
7 | HarRLIVAVRIWRR ([hArg]RLIVAVRIWRR-NH2; N-terminus assumed; SMILES CC[C@H](C)[C@H](NC(=O)[C@H](CCCNC(=N)N)NC(=O)[C@@H](NC(=O)[C@H](C)NC(=O)[C@@H](NC(=O)[C@@H](NC(=O)[C@H](CC(C)C)NC(=O)[C@H](CCCNC(=N)N)NC(=O)[C@@H](N)CCCCNC(=N)N)[C@@H](C)CC)C(C)C)C(C)C)C(=O)N[C@@H](Cc1c[nH]c2ccccc12)C(=O)N[C@@H](CCCNC(=N)N)C(=O)N[C@@H](CCCNC(=N)N)C(N)=O) [Peptide 1018-r25] |  | 64%
8 | IVKWIAQWKLVG (IVKWIAQWKLVG-NH2) [Imax-10] |  | 100%
9 | KKQKKIWRRILV (KKQKKIWRRILV-NH2) [Mmax-16] |  | 105%
10 | OrnRLIVAVRIWRR ([Orn]RLIVAVRIWRR-NH2; N-terminus assumed; SMILES CC[C@H](C)[C@H](NC(=O)[C@H](CCCNC(=N)N)NC(=O)[C@@H](NC(=O)[C@H](C)NC(=O)[C@@H](NC(=O)[C@@H](NC(=O)[C@H](CC(C)C)NC(=O)[C@H](CCCNC(=N)N)NC(=O)[C@@H](N)CCCN)[C@@H](C)CC)C(C)C)C(C)C)C(=O)N[C@@H](Cc1c[nH]c2ccccc12)C(=O)N[C@@H](CCCNC(=N)N)C(=O)N[C@@H](CCCNC(=N)N)C(N)=O) [Peptide 1018-k25] |  | 44%
11 | RQVRVKRWRARW (RQVRVKRWRARW-NH2) [Mmax-18] |  | 100%
12 | VKGAIKRGIWVK (VKGAIKRGIWVK-NH2) [Imax-5] |  | 99%
13 | VOrnLIVAVRIWRR (V[Orn]LIVAVRIWRR-NH2; N-terminus assumed; SMILES CC[C@H](C)[C@H](NC(=O)[C@H](CCCNC(=N)N)NC(=O)[C@@H](NC(=O)[C@H](C)NC(=O)[C@@H](NC(=O)[C@@H](NC(=O)[C@H](CC(C)C)NC(=O)[C@H](CCCN)NC(=O)[C@@H](N)C(C)C)[C@@H](C)CC)C(C)C)C(C)C)C(=O)N[C@@H](Cc1c[nH]c2ccccc12)C(=O)N[C@@H](CCCNC(=N)N)C(=O)N[C@@H](CCCNC(=N)N)C(N)=O) [Peptide 1018-k26] |  | 63%
14 | VRLIVAVHarIWRR (VRLIVAV[hArg]IWRR-NH2; N-terminus assumed; SMILES CC[C@H](C)[C@H](NC(=O)[C@H](CCCCNC(=N)N)NC(=O)[C@@H](NC(=O)[C@H](C)NC(=O)[C@@H](NC(=O)[C@@H](NC(=O)[C@H](CC(C)C)NC(=O)[C@H](CCCNC(=N)N)NC(=O)[C@@H](N)C(C)C)[C@@H](C)CC)C(C)C)C(C)C)C(=O)N[C@@H](Cc1c[nH]c2ccccc12)C(=O)N[C@@H](CCCNC(=N)N)C(=O)N[C@@H](CCCNC(=N)N)C(N)=O) [Peptide 1018-r32] |  | 45%
15 | VRLIVAVOrnIWRR (VRLIVAV[Orn]IWRR-NH2; N-terminus assumed; SMILES CC[C@H](C)[C@H](NC(=O)[C@H](CCCN)NC(=O)[C@@H](NC(=O)[C@H](C)NC(=O)[C@@H](NC(=O)[C@@H](NC(=O)[C@H](CC(C)C)NC(=O)[C@H](CCCNC(=N)N)NC(=O)[C@@H](N)C(C)C)[C@@H](C)CC)C(C)C)C(C)C)C(=O)N[C@@H](Cc1c[nH]c2ccccc12)C(=O)N[C@@H](CCCNC(=N)N)C(=O)N[C@@H](CCCNC(=N)N)C(N)=O) [Peptide 1018-k32] |  | 46%
16 | VRLIVAVRIWHarR (VRLIVAVRIW[hArg]R-NH2; N-terminus assumed; SMILES CC[C@H](C)[C@H](NC(=O)[C@H](CCCNC(=N)N)NC(=O)[C@@H](NC(=O)[C@H](C)NC(=O)[C@@H](NC(=O)[C@@H](NC(=O)[C@H](CC(C)C)NC(=O)[C@H](CCCNC(=N)N)NC(=O)[C@@H](N)C(C)C)[C@@H](C)CC)C(C)C)C(C)C)C(=O)N[C@@H](Cc1c[nH]c2ccccc12)C(=O)N[C@@H](CCCCNC(=N)N)C(=O)N[C@@H](CCCNC(=N)N)C(N)=O) [Peptide 1018-r35] |  | 33%
17 | VRLIVAVRIWOrnR (VRLIVAVRIW[Orn]R-NH2; N-terminus assumed; SMILES CC[C@H](C)[C@H](NC(=O)[C@H](CCCNC(=N)N)NC(=O)[C@@H](NC(=O)[C@H](C)NC(=O)[C@@H](NC(=O)[C@@H](NC(=O)[C@H](CC(C)C)NC(=O)[C@H](CCCNC(=N)N)NC(=O)[C@@H](N)C(C)C)[C@@H](C)CC)C(C)C)C(C)C)C(=O)N[C@@H](Cc1c[nH]c2ccccc12)C(=O)N[C@@H](CCCN)C(=O)N[C@@H](CCCNC(=N)N)C(N)=O) [Peptide 1018-k35] |  | 34%
18 | VRLIVAVRIWRHar (VRLIVAVRIWR[hArg]-NH2; N-terminus assumed; SMILES CC[C@H](C)[C@H](NC(=O)[C@H](CCCNC(=N)N)NC(=O)[C@@H](NC(=O)[C@H](C)NC(=O)[C@@H](NC(=O)[C@@H](NC(=O)[C@H](CC(C)C)NC(=O)[C@H](CCCNC(=N)N)NC(=O)[C@@H](N)C(C)C)[C@@H](C)CC)C(C)C)C(C)C)C(=O)N[C@@H](Cc1c[nH]c2ccccc12)C(=O)N[C@@H](CCCNC(=N)N)C(=O)N[C@@H](CCCCNC(=N)N)C(N)=O) [Peptide 1018-r36] |  | 27%
19 | VRLIVAVRIWROrn (VRLIVAVRIWR[Orn]-NH2; N-terminus assumed; SMILES CC[C@H](C)[C@H](NC(=O)[C@H](CCCNC(=N)N)NC(=O)[C@@H](NC(=O)[C@H](C)NC(=O)[C@@H](NC(=O)[C@@H](NC(=O)[C@H](CC(C)C)NC(=O)[C@H](CCCNC(=N)N)NC(=O)[C@@H](N)C(C)C)[C@@H](C)CC)C(C)C)C(C)C)C(=O)N[C@@H](Cc1c[nH]c2ccccc12)C(=O)N[C@@H](CCCNC(=N)N)C(=O)N[C@@H](CCCN)C(N)=O) [Peptide 1018-k36] |  | 20%
20 | VRLIVHarVRIWRR (VRLIV[hArg]VRIWRR-NH2; N-terminus assumed; SMILES CC[C@H](C)[C@H](NC(=O)[C@H](CCCNC(=N)N)NC(=O)[C@@H](NC(=O)[C@H](CCCCNC(=N)N)NC(=O)[C@@H](NC(=O)[C@@H](NC(=O)[C@H](CC(C)C)NC(=O)[C@H](CCCNC(=N)N)NC(=O)[C@@H](N)C(C)C)[C@@H](C)CC)C(C)C)C(C)C)C(=O)N[C@@H](Cc1c[nH]c2ccccc12)C(=O)N[C@@H](CCCNC(=N)N)C(=O)N[C@@H](CCCNC(=N)N)C(N)=O) [Peptide 1018-r30] |  | 57%
